According to publication PMC5126700 (Scientific Reports, 2016):

How the values were obtained:
ERp57 [1] = target: T1, ERp57 (Homo sapiens, UniProt P30101); test: Isothermal Titration Calorimetry of ERp57 with silibinin; assay type: binding; settings: Figure 5b, ERp57 5 μM, silibinin 50 μM
T1 construct: we performed the isothermal titration calorimetry of the whole protein and its two mutants; made in house; host or cells: E. coli BL21 (pET21)
T1 sequence (P30101 25-505): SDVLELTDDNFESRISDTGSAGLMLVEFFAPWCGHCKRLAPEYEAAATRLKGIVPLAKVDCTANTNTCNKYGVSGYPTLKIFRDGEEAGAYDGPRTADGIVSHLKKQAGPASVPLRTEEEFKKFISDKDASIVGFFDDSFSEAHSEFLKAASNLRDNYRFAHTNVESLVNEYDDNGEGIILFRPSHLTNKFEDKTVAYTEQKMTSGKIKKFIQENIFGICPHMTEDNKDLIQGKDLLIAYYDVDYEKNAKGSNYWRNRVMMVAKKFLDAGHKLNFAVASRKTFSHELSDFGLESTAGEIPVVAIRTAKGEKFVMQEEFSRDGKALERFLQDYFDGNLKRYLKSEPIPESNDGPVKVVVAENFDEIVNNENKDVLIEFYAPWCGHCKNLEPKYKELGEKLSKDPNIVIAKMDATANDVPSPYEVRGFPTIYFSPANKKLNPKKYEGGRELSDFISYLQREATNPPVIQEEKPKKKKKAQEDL
Experimental: Both the protein and the ligands were in the same buffer (see Materials and Methods). […] (Lower panel) Integrated heats of reaction plotted against the molar ratio of total ligand concentration to total protein concentration. […] The integrated heat of reaction is plotted against the molar ratio of total ligand concentration to total protein concentration.
ITC experiments were performed at 25 °C using a MicroCal ITC200 microcalorimeter (MicroCal Inc., Northampton, MA, USA). […] Samples were centrifuged before the experiments to eliminate possible aggregates. Protein and ligand solutions were degassed before use. Titrations were performed at 25 °C. The protein solution was placed in the sample cell, and each ligand solution was loaded into the syringe injector. The titrations involved 19 injections of 2 μL at 180 s intervals. The syringe stirring speed was set at 1,000 rpm. The reaction was very fast, as shown by the immediate appearance of an endothermic sharp peak following the addition of ligand to the protein and its deletion mutants solution in the microcalorimetric titration experiment. Reference titrations of ligand into buffer were used to correct for heats of dilution. […] The values of ΔH were measured for each titration, and fitting the binding isotherms with a one-site binding model yielded the values of the association constant (Ka). […]

ERp57 [2] = settings: cited from earlier work

In the case of `COc1cc(C2Oc3cc([C@H]4Oc5cc(O)cc(O)c5C(=O)[C@@H]4O)ccc3OC2CO)ccc1O` (stereo partly drawn) [silibinin], the “n (best fit)” value (ERp57 [1]) is listed as 0.776 (±0.0183) sites/mole, the Kd (ERp57 [1]; read-out: Ka (best fit) (converted)) is listed as 483 nM and the “affinity for ERp57 compared to calcitriol” value (ERp57 [2]) is listed as “at least two orders of magnitude lower”.
